For assay [1], the system named is SSc fibroblasts. Briefly: Total collagen (hydroxyproline) in culture media of SSc fibroblasts. It is filed as cell-based. Particulars: for total collagen secretion into the culture media as measured by hydroxyproline: SSc dermal fibroblasts, 48 h, 100 μM or 10 μM compound (FIG. 5); for blocking collagen synthesis: in vitro, fibroblasts derived from scleroderma patients. On the procedure: FIG. 5 is a set of graphs illustrating target validation studies. […] SSc dermal fibroblasts were treated for 48 h with 100 μM or 10 μM of compound, then media was collected and total collagen was measured by hydroxyproline. Samples were tested in triplicate across different patient samples and expressed as the mean±SEM (n=4). *p<0.0001, **p=0.02.
SSc fibroblasts were treated for 48 h with 1 nM compound, and then culture media was recovered and hydroxyproline was measured. Samples were tested in triplicate across different patient samples and expressed as the mean±SEM (n=3 independent patient samples).
SSc fibroblasts were cultured with selected molecules of the invention, and total collagen synthesis was assessed with hydroxyproline. […] KA862 and KA494 were selected for further in vitro evaluation.

Assay [2] deals with normal fibroblasts stimulated with bleomycin. Put plainly: Bleomycin induced fibrosis in vitro model: normal fibroblasts stimulated with bleomycin, hydroxyproline in culture media. Particulars: for IC50: Fibroblast, decreasing concentrations of compound against 10 μM bleomycin, 48 h, hydroxyproline in culture media (FIG. 9); for blocking collagen synthesis: in vitro, normal fibroblasts stimulated with 10 μM bleomycin. Type of assay: cell-based. On the procedure:
FIG. 7 is a set of bar graphs illustrating the finding that compounds of the invention are effective against bleomycin induced fibrosis in an in vitro model. Top graph: normal fibroblasts stimulated with bleomycin (Bleo)+IL-1RA (n=3); bottom graph: normal fibroblasts stimulated with Bleo+KA862 (n=3).
FIG. 9 is a set of graphs illustrating the IC50 determination for KA521, KA222, KA306, and KA695. Decreasing concentrations of compound were tested against 10 μM bleomycin for 48 h and hydroxyproline measured in the culture media.
Without wishing to be limited by any theory, designing a focused screening library allows for the identification of analogs with favorable drug-like properties and binding efficacy against IL-1R. Compounds of interest may be tested in vitro using patient-derived scleroderma fibroblasts, normal fibroblasts treated with bleomycin to increase collagen synthesis, and in vivo in scleroderma animal models.
FIG. 7 illustrates the finding that compounds of the invention are effective against bleomycin induced fibrosis. Normal fibroblasts were treated with bleomycin and either IL-1RA or a compound of the invention, so as to inhibit collagen.

Molecules are shown by their SMILES.

For the molecule `O=C(CN(Cc1ccc2c(c1)OCO2)S(=O)(=O)c1ccc(S(=O)(=O)NC2CCCC2)cc1)Nc1ccccc1` [KA199, N^2-(1,3-benzodioxol-5-ylmethyl)-N^2-{[4-(cyclopentylsulfamoyl)phenyl]sulfonyl}-N-phenyl glycinamide], the “total collagen secretion into the culture media as measured by hydroxyproline” value in assay [1] is recorded as “effective at reducing total collagen secretion”.
On to `Cc1nn(-c2ccccc2)c2c1C(c1c(O)ccc3ccccc13)C(C#N)=C(N)O2` (stereo not drawn) [KA222, 6-amino-4-(2-hydroxynaphthalen-1-yl)-3-methyl-1-phenyl-1,4-dihydropyrano[2,3-c]pyrazole-5-carbonitrile], for which, in assay [2], the IC50 was roughly 1 nM.
`COC(=O)C1=C(C)NC2=C(C(=O)CC(c3ccc(OC)c(OC)c3)C2)C1c1cccc2ccccc12` (stereo not drawn) [KA306, methyl 7-(3,4-dimethoxyphenyl)-2-methyl-4-(naphthalen-1-yl)-5-oxo-1,4,5,6,7,8-hexahydroquinoline-3-carboxylate]: the IC50 in assay [2] is roughly 1 nM.
For `O=C(C[S+]([O-])CC(=O)N(CC(=O)NC1CCCCC1)c1cccc2ccccc12)Nc1ccc(F)cc1` (stereo not drawn) [KA494, N-(2-(cyclohexylamino)-2-oxoethyl)-2-((2-((4-fluorophenyl)amino)-2-oxoethyl)sulfinyl)-N-(naphthalen-1-yl)acetamide], in assay [1], the “total collagen secretion into the culture media as measured by hydroxyproline” value is reported as “effective at reducing total collagen secretion” and the blocking collagen synthesis result is “efficacious in blocking collagen synthesis”. For the same molecule, the blocking collagen synthesis entry in assay [2] was “efficacious in blocking collagen synthesis”.
As to `COc1cccc(NC(=O)Cn2nc(-c3ccncc3)nc2SCC(=O)NC2CCCC2)c1` [KA529, (2-[5-{[2-(cyclopentylamino)-2-oxoethyl]sulfanyl}-3-(4-pyridinyl)-1H-1,2,4-triazol-1-yl]-N-(3-methoxyphenyl)acetamide)], the “total collagen secretion into the culture media as measured by hydroxyproline” value in assay [1] is recorded as “effective at reducing total collagen secretion”.
As to `O=C(C[S+]([O-])CC(=O)N(CC(=O)NC1CCCC1)Cc1ccccc1Cl)Nc1ccc2c(c1)OCO2` (stereo not drawn) [KA680, (N^2-({[2-(1,3-benzodioxol-5-ylamino)-2-oxoethyl]sulfinyl}acetyl)-N^2-(2-chlorobenzyl)-N-cyclopentylglycinamide)], in assay [1], the “total collagen secretion into the culture media as measured by hydroxyproline” value is recorded as “effective at reducing total collagen secretion”.
On to `COCCOC(=O)C1=C(C)NC2=C(C(=O)CCC2)C1c1cccc2ccccc12` (stereo not drawn) [KA695, 2-methoxyethyl 2-methyl-4-(naphthalen-1-yl)-5-oxo-1,4,5,6,7,8-hexahydroquinoline-3-carboxylate], for which the 50% inhibitory concentration (IC50) in assay [2] is roughly 1 nM.
In the case of `O=C(CSc1nnc(Cc2csc(Nc3cccc(Cl)c3)n2)n1Cc1ccco1)OC1CCCCC1` [KA862, cyclohexyl 2-((5-((2-((3-chlorophenyl)amino)thiazol-4-yl)methyl)-4-(furan-2-ylmethyl)-4H-1,2,4-triazol-3-yl)thio)acetate], in assay [1], the “total collagen secretion into the culture media as measured by hydroxyproline” value is listed as “effective at reducing total collagen secretion”. Also, the blocking collagen synthesis entry in assay [1] and in assay [2] was “efficacious in blocking collagen synthesis” each time.

(Values after US11345696B2, “Compounds and methods of treating or ameliorating an IL-1R-mediated disease or disorder using same” (DREXEL UNIVERSITY, priority 2014, dated 2022).)
